Measured values published in PubChem BioAssay (NCI).
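Dose response: 5 concentrations. Exposure: 48 h. Format: 96-well plates. Endpoint: linear interpolation; highest concentration if not reached. The concentration for 50% growth inhibition is given as GI50. The concentration for full growth arrest is given as TGI.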

Key:
Test in all cases: DTP human tumour cell line panel, 48 h
SNB-75 CNS = system: SNB-75 CNS
UO-31 renal = system: UO-31 renal
MALME-3M melanoma = system: MALME-3M melanoma
HCT-116 colon = system: HCT-116 colon
MDA-N = system: MDA-N
SK-MEL-28 melanoma = system: SK-MEL-28 melanoma
LOX IMVI melanoma = system: LOX IMVI melanoma
T-47D breast = system: T-47D breast
SR leukemia = system: SR leukemia
EKVX NSCLC = system: EKVX NSCLC
HOP-92 NSCLC = system: HOP-92 NSCLC

| Compound | TGI (SNB-75 CNS) | TGI (UO-31 renal) | TGI (MALME-3M melanoma) | TGI (HCT-116 colon) | TGI (MDA-N) | TGI (SK-MEL-28 melanoma) | TGI (LOX IMVI melanoma) | TGI (T-47D breast) | TGI (SR leukemia) | TGI (EKVX NSCLC) | TGI (HOP-92 NSCLC) | GI50 (UO-31 renal) | GI50 (EKVX NSCLC) | GI50 (MALME-3M melanoma) | GI50 (SK-MEL-28 melanoma) |
| --- | --- | --- | --- | --- | --- | --- | --- | --- | --- | --- | --- | --- | --- | --- | --- |
| Cc1ccc(S(=O)(=O)N2CCc3cc(O)c([N+](=O)[O-])cc32)cc1 | > 100 µM | > 100 µM | > 100 µM | > 100 µM | > 100 µM | > 100 µM | > 100 µM | > 100 µM | – | – | – | – | – | – | – |
| N#Cc1ccnc(C(=O)N2CCCC2C(=O)O)c1 (centres undefined) | > 100 µM | > 100 µM | > 100 µM | > 100 µM | > 100 µM | > 100 µM | > 100 µM | > 100 µM | > 100 µM | > 100 µM | > 100 µM | – | – | – | – |
| CO[C@H](C)[C@](O)(C(=O)OCC1=CCN2CC[C@@H](O)[C@H]12)C(C)C | > 100 µM | > 100 µM | – | > 100 µM | > 100 µM | > 100 µM | > 100 µM | > 100 µM | > 100 µM | > 100 µM | > 100 µM | – | – | – | – |
| Oc1ccc(C[C@@H]2CN[C@H](Cc3ccc(O)c(Br)c3)CN2)cc1 | > 100 µM | > 100 µM | – | > 100 µM | – | > 100 µM | – | > 100 µM | > 100 µM | > 100 µM | > 100 µM | – | – | – | – |
| CC1OC2OC3C(OCC(O)C3O)OC(=O)[C@]34CCC(C)(C)CC3C3=CCC5[C@@]6(C)C[C@H](O)[C@H](OC7OC(CO)C(O)C(O)C7OC7OC(COC(=O)CC(C)(O)CC(=O)OC1C(OC1OC(CO)C(O)C(O)C1O)C2O)C(O)C(O)C7O)[C@@](C)(CO)C6CC[C@@]5(C)[C@]3(C)CC4 (some centres undefined) | 6.79 µM | 5.31 µM | 6.96 µM | 10.3 µM | 2.65 µM | 2.58 µM | 12.1 µM | 12.6 µM | 12.4 µM | – | 4.31 µM | – | – | – | – |
| CCOP(=O)(COCCn1nc(Br)c(=O)[nH]c1=O)OCC | > 100 µM | > 100 µM | > 100 µM | – | > 100 µM | > 100 µM | > 100 µM | > 100 µM | > 100 µM | > 100 µM | > 100 µM | – | – | – | – |
| Brc1ccc2[nH]cc(-c3csc(-c4c[nH]c5ccc(Br)cc45)n3)c2c1 | 7.27 µM | 7.27 µM | 3.99 µM | 3.26 µM | 5.95 µM | 5.31 µM | 3.21 µM | 12.2 µM | 2.99 µM | 3.93 µM | 4.64 µM | – | – | – | – |
| COc1cc(/C=C2/C(=O)N(C(=O)c3ccccc3O)N=C2C)ccc1O | – | – | > 100 µM | > 100 µM | > 100 µM | > 100 µM | > 70.6 µM | > 100 µM | > 100 µM | > 77.7 µM | > 100 µM | – | – | – | – |
| CC12CCC(=O)[C@@]1(C)CCCC2=O (some centres undefined) | – | > 100 µM | > 100 µM | > 100 µM | > 100 µM | > 100 µM | > 100 µM | > 100 µM | > 100 µM | > 100 µM | – | – | – | – | – |
| COC(=O)c1ccc2cc(O)ccc2c1 | – | > 100 µM | > 100 µM | > 100 µM | > 100 µM | > 100 µM | > 100 µM | > 100 µM | 81.9 µM | > 100 µM | > 100 µM | – | – | – | – |
| NC(=O)c1ncn(C2OC(CO)C(O)C2O)c1NC(=S)NC(=O)c1ccccc1 (centres undefined) | > 100 µM | > 100 µM | > 100 µM | > 100 µM | – | > 100 µM | > 100 µM | – | > 100 µM | > 100 µM | > 100 µM | – | – | – | – |
| O=C(O)C(CS)N=Cc1nc(-c2ccccc2)oc1O (centres undefined) | > 100 µM | > 100 µM | > 100 µM | > 100 µM | – | > 100 µM | > 100 µM | – | > 100 µM | > 100 µM | > 100 µM | – | – | – | – |
| CC(=O)Oc1ccc2c(c1)O/C(=C\c1ccc(O)cc1)C2=O | > 100 µM | > 100 µM | – | > 100 µM | > 100 µM | > 100 µM | – | > 100 µM | > 100 µM | > 100 µM | – | – | – | – | – |
| Nc1cc2nc(-c3ccccc3)cn2cn1 | > 100 µM | > 100 µM | 70 µM | > 100 µM | > 100 µM | > 100 µM | > 100 µM | > 100 µM | – | 95.3 µM | – | – | – | – | – |
| Cc1ccc(N2C(=O)/C(=C3\Sc4c(nc(C)n(C)c4=O)N3c3ccccc3)SC2=S)cc1 | 79.4 µM | > 100 µM | – | > 100 µM | – | > 100 µM | > 100 µM | – | > 100 µM | > 100 µM | > 100 µM | – | – | – | – |
| COc1ccc(CCn2ccc(=O)c(O)c2C)cc1OC | – | – | 91 µM | > 100 µM | > 100 µM | – | 78.9 µM | 85.7 µM | > 100 µM | > 100 µM | 80.5 µM | – | – | – | – |
| CC1=NN(c2cccc(Cl)c2)C2(C1=Cc1ccc(N(C)C)cc1)C(Cl)C(=O)N2c1nc2ccccc2s1 (centres undefined) | – | > 100 µM | – | > 100 µM | > 100 µM | > 100 µM | > 100 µM | > 100 µM | > 100 µM | > 100 µM | 64.7 µM | – | – | – | – |
| CC(=O)OC1COC(N2c3ccccc3[C@@H]3CCc4c([nH]c5ccccc45)[C@@H]32)C(OC(C)=O)C1OC(C)=O (mixture of isomers) | > 100 µM | > 100 µM | > 100 µM | > 100 µM | > 100 µM | > 100 µM | – | – | > 100 µM | > 100 µM | > 100 µM | – | – | – | – |
| O=C1c2cc3c(cc2-c2c1c1cc(F)c(F)cc1c(=O)n2C[C@H](O)CO)OCO3 | – | 0.337 µM | 0.916 µM | – | – | 7.15 µM | – | – | > 100 µM | 8.77 µM | – | 0.0698 µM | 0.652 µM | 0.196 µM | 0.28 µM |
| C=CCN(c1cc(OC)c2[nH]c(C(=O)O)c(C)c2c1[N+](=O)[O-])S(C)(=O)=O | > 100 µM | > 100 µM | 52.3 µM | > 100 µM | > 100 µM | > 100 µM | > 100 µM | > 100 µM | > 100 µM | > 100 µM | – | – | – | – | – |
| O=C1CN(c2ccccc2)C(=O)C1C(=O)Nc1ccc(Cl)c(Cl)c1 (centres undefined) | 19.2 µM | 11.7 µM | – | – | – | 21.4 µM | – | – | 5.87 µM | – | 14.5 µM | – | – | – | – |
